The subject of data set [1] is HDFs. The experiment in a line: Observation of cell morphology changes after UVB irradiation. The data set is classed as cell-based, human. The note with it: highest non-cytotoxic concentration, UVB 25 mJ/cm^2 after 2 hours, cultured 24 hours, FIG. 3. As to the method:
An experiment for confirming an anti-wrinkle effect was conducted on each sample confirmed in Example 1.

Data set [2] deals with human dermal fibroblasts (HDFs). The settings on record: sample 0 to 1000 μg/mL, 24 hours, MTT, FIG. 1 / FIG. 2. As to the method: First, the cytotoxicity of each sample was confirmed using the following method. After human dermal fibroblasts (HDFs) were cultured in a 96-well culture plate at a concentration of 1.5×10^4 cells/well for 24 hours to reach a clustering coefficient of 70 to 80%, and then the sample prepared in Example 1 was treated at a concentration of 0 to 1000 μg/mL, and cultured in an incubator (37° C., 5% CO2) for an additional 24 hours. […] The absorbance of each well was measured at 570 nm using a microplate reader.

SMILES strings stand for the structures. A value given as a limit tells only on which side of the number the result lay.

With `O=C1O[C@H]([C@@H](O)CO)C(O)=C1O` [vitamin C], the “number of cells after UVB irradiation” value in data set [1] is on record as “number of cells increased to the level of the untreated group”. The “concentration at which cytotoxicity is exhibited” value in data set [2] was at least 500 µg/mL.

Source of the values: patent US20240366495A1, “COMPOSITION FOR AMELIORATING WRINKLES USING FERMENTED EXTRACT OF CANNABIS STEM AND PREPARATION METHOD THEREOF” (KOREA INSTITUTE OF SCIENCE AND TECHNOLOGY, priority 2023, published 2024).
